From patent publication US12410407B2, “Choroid plexus organoids and methods for production thereof” (UNITED KINGDOM RESEARCH AND INNOVATION, priority 2019, dated 2025)
Read-outs that look alike come from different tables or passages of the source. Marks after values point to notes of the source that are not given here. Blank lines part the entries; values can stand above or below the compound they belong to.

Experiments:
[1] = In vivo drug levels in CSF and blood plasma, and unbound CSF to plasma ratio (literature data); parameters: species or system humans; conditions: human, calculated from literature values (Qalb 0.005)
Experimental: For comparison between in vitro and in vivo levels of small molecules in CSF, in vivo unbound CSF to blood plasma ratio, Kp,uu,CSF, was calculated as the ratio of the unbound drug in CSF (Cu,CSF) to that in blood plasma (Cu,p) similar to previously described (7) (eq A). The amount of unbound drug in each of CSF and plasma is the product of the total drug concentration (Cp) or (CCSF) and the fraction of drug that is unbound (fu,p) or (fu,CSF)(eqs B and C). Cp, CCSF, and fu,p were taken from literature (Table S2). However, because of the difficulty in obtaining large amounts of CSF, for most drugs fu,CSF is not known.

ChP epithelial barrier [2] = system: ChP epithelial barrier; parameters: Km, uu, iCSF: unit not given beside the values
[3] = in vivo, from literature, cited from earlier work
[4] = cited from earlier work
[5] = six trial participants, one of whom died; cited from earlier work
ChP epithelial barrier [6] = assay: ChP organoid small-molecule permeability, NMR analysis of media and iCSF; conditions: for Presence in iCSF by NMR: after 2h incubation, 500 μM, L-Dopa in the presence of Carbidopa
Experimental: On day 5 media was replaced with NI media in the same 96-well. After two days EBs were embedded in 20 μl matrigel using sheets of dimpled parafilm and incubated for 20 min at 37° C. as previously described (2). EBs were then transferred to a 6-well plate with 3 ml of Expansion media per well. For ChP patterning, on day 10 treatment with 3 μM CHIR and 20 ng/ml BMP4 in Maturation media was used keeping a maximum number of 6 EBs in each 5 cm dish. The treatment was kept for 7 days in maturation media. On day 15 organoids were moved to an incubator with a shaker and were fed every 3-4 days with maturation media. From day 30 dissolved matrigel (1:50) was added to the maturation media.
For NMR experiments, ChP organoids were incubated in complete IDM+A media without phenol red and 1:50 Geltrex (Gibco, A14132-02) for 2 h, 12h, 24 h, 48h or 72h. Organoid media and iCSF were collected and centrifuged at 500 g for 5 min to remove debris. ^1H-NMR spectra were acquired using a Bruker Ultrashield 400 Plus operating at 400.1 MHz. Samples consisting of H2O/D2O mixtures were analyzed using HOD suppression to collect ^1H-NMR data. Chemical shifts (6) are shown in ppm. The yields of conversion were determined by relative integration of the signals in the ^1H-NMR spectra. Data analysis was performed using MestReNova (version 7.0) and GraphPad Prism (version 7.0b).
Because the NMR measurements of in vitro fluids detected unbound drug, the ratio (Km,uu,iCSF) was a simple function of the ratio of drug in in vitro CSF (Cu,iCSF) to drug in media (Cu,m) (eq E).
Thus, in order to test for such selective permeability to small molecules, we applied various therapeutically relevant small molecules and assayed their permeability by NMR analysis of organoid iCSF. […] We incubated the organoids with Dopa and with L-Dopa in the presence of Carbidopa, a small molecule that prevents the conversion of L-Dopa into Dopa (34, 35).

[7] = in vivo data from mouse
Text: Pre-clinical or clinical data of this molecule in humans are not yet available, but Phase I clinical trials are under way so any additional human in vitro data would be informative.

[8] = cited from earlier work; remark: listed apart in the source
protein misfolding = conditions: mouse model of Charcot-Marie Tooth-1B; cited from earlier work
[9] = total drug concentration in blood plasma
[10] = unbound concentrations reported, average of two measurements
[11] = in vivo data from mouse, estimate from graph in reference
[12] = total drug concentration in CSF

Kp uu [1]: 0.185 | Km, uu, iCSF (ChP epithelial barrier [2]): 0.10
SMILES: NCCc1ccc(O)c(O)c1 [Dopamine]
CCSF ([3]; Δ upon injection): 9.01 ng/mL | Cp ([3]; Δ upon injection): 67.4 ng/mL | Entry into brain/CSF in vivo as established in the literature [4]: doesn't enter the brain in vivo

Km, uu, iCSF (ChP epithelial barrier [2]): 1.07
SMILES: CC(NC(C)(C)C)C(=O)c1cccc(Cl)c1 (stereo not drawn) [Bupropion]
Cp [3, 9]: 29.8 ng/mL

Kp uu [1]: 0.042
SMILES: CC[C@]1(O)C[C@H]2CN(CCc3c([nH]c4ccccc34)[C@@](C(=O)OC)(c3cc4c(cc3OC)N(C=O)[C@H]3[C@@](O)(C(=O)OC)[C@H](OC(C)=O)[C@]5(CC)C=CCN6CC[C@]43[C@@H]65)C2)C1 [Vincristine]
CCSF [3, 10]: 0.855 nM | Cp [3, 10]: 0.0205 µM | Entry into brain/CSF in vivo as established in the literature [4]: poorly cross the BBB

Time course of the ratio in iCSF to media (ChP epithelial barrier [6]; 2 h, 12h, 24 h and 72h): continued to accumulate in the iCSF | Presence in iCSF by NMR (ChP epithelial barrier [6]): able to cross the ChP epithelial barrier
SMILES: CN(C(=O)n1cnc(-c2ccc[n+]([O-])c2)c1)C1CCCCC1 [BIA-10-2474]
Adverse effects in Phase I clinical trials [5]: severe neurotoxicity

Kp, uu, CSF (total compound brain to plasma ratio) [7]: 10^# | Permeability in the human organoid model compared with the mouse model (ChP epithelial barrier [6]; 2h incubation, compared with published mouse data): much lower | Presence in iCSF by NMR (ChP epithelial barrier [6]): detectable
SMILES: NC(N)=N/N=C/c1ccccc1Cl [Sephin 1]
CCSF [8, 11]: ~110 ng/g | Cp [8, 11]: ~11 ng/mL | BBB crossing in mouse ([8]; mouse): cross the BBB | CNS effect against protein misfolding (protein misfolding): protective CNS role against protein misfolding

Kp uu [1]: 0.04 | Km, uu, iCSF (ChP epithelial barrier [2]): 0.01
SMILES: CN(Cc1cnc2nc(N)nc(N)c2n1)c1ccc(C(=O)N[C@@H](CCC(=O)O)C(=O)O)cc1 [Methotrexate]
CCSF [3, 12]: 270 nM | Cp [3, 9]: 15.8 µM | Entry into brain/CSF in vivo as established in the literature [4]: poorly cross the BBB

iCSF/media ratio, L-Dopa compared to Dopa (ChP epithelial barrier [2]): consistently higher
SMILES: N[C@@H](Cc1ccc(O)c(O)c1)C(=O)O [L-DOPA, Levodopa]
CCSF [3, 12]: ~150 ng/mL | Cp [3, 9]: ~400 ng/mL | Entry into brain/CSF in vivo as established in the literature [4]: actively transported in to the CSF via the LAT-1 transporter
